Legend:
[1] = tested on: Colletotrichum lagenarium; conditions: 200 ppm spray on cucumber (3 leaf stage), inoculated next day; lesion numbers on first and second leaves after 7 days in green house, graded by Table 5
Pyricularia oryzae = format: in vivo; conditions: 200 ppm spray on rice (Koshihikari, 3 leaf stage), inoculated next day; lesion numbers on third leaves after 7 days in green house, graded by Table 5

COc1ccc(C(=O)NCc2cc(/C=C/C(C)C)no2)cc1
Evaluation (effect for cucumber anthracnose) [1]: 4 (1˜5) | Evaluation (effect for rice blast) (Pyricularia oryzae): 4 (1˜5)

O=C(NCc1cc(Cc2ccccc2)no1)OC1CCCCC1
Evaluation (effect for rice blast) (Pyricularia oryzae): 4 (1˜5)

CC(C)c1cc(CNC(=O)Oc2ccccc2)on1 [I-4]
Evaluation (effect for cucumber anthracnose) [1]: 5 (0) | Evaluation (effect for rice blast) (Pyricularia oryzae): 5 (0)

O=C(NCc1cc(C2CCCCC2)no1)Oc1ccccc1 [I-6, phenyl[(3-cyclohexyl-5-isoxazolyl)methyl]carbamate]
Evaluation (effect for cucumber anthracnose) [1]: 5 (0) | Evaluation (effect for rice blast) (Pyricularia oryzae): 5 (0)

CC(C)Cc1cc(CNC(=O)Oc2ccccc2)on1 [I-8, phenyl [(3-isobutyl-5-isoxazolyl)methyl]carbamate]
Evaluation (effect for cucumber anthracnose) [1]: 3 (6˜10) | Evaluation (effect for rice blast) (Pyricularia oryzae): 3 (6˜10)

Cc1ccc(-c2cc(CNC(=O)Oc3ccccc3)on2)cc1 [I-25, phenyl{[3-(4-tolyl)-5-isoxazolyl)methyl]carbamate]
Evaluation (effect for rice blast) (Pyricularia oryzae): 5 (0)

COc1ccc(-c2cc(CNC(=O)Oc3ccccc3)on2)cc1 [I-26, phenyl{[3-(4-methoxyphenyl)-5-isoxazolyl]methyl}carbamate]
Evaluation (effect for cucumber anthracnose) [1]: 5 (0) | Evaluation (effect for rice blast) (Pyricularia oryzae): 5 (0)

O=C(NCc1cc(-c2ccc(F)cc2)no1)Oc1ccccc1 [I-27, phenyl{[3-(4-fluorophenyl)-5-isoxazolyl)methyl]carbamate]
Evaluation (effect for cucumber anthracnose) [1]: 5 (0) | Evaluation (effect for rice blast) (Pyricularia oryzae): 5 (0)

O=C(NCc1cc(-c2ccccc2Cl)no1)Oc1ccccc1 [I-28, phenyl{[3-(2-chlorophenyl)-5-isoxazolyl]methyl}carbamate]
Evaluation (effect for cucumber anthracnose) [1]: 5 (0) | Evaluation (effect for rice blast) (Pyricularia oryzae): 4 (1˜5)

O=C(NCc1cc(-c2cccc(Cl)c2)no1)Oc1ccccc1 [I-29, phenyl{[3-(3-chlorophenyl)-5-isoxazolyl)methyl]carbamate]
Evaluation (effect for cucumber anthracnose) [1]: 5 (0) | Evaluation (effect for rice blast) (Pyricularia oryzae): 5 (0)

O=C(NCc1cc(-c2ccc(Cl)cc2)no1)Oc1ccccc1 [I-30, phenyl{[3-(4-chlorophenyl)-5-isoxazolyl)methyl]carbamate]
Evaluation (effect for cucumber anthracnose) [1]: 5 (0) | Evaluation (effect for rice blast) (Pyricularia oryzae): 5 (0)

O=C(NCc1cc(-c2ccccn2)no1)Oc1ccccc1 [I-31, phenyl{[3-(2-pyrizyl)-5-isoxazolyl]methyl}carbamate]
Evaluation (effect for rice blast) (Pyricularia oryzae): 4 (1˜5)

O=C(NCc1cc(-c2cccs2)no1)Oc1ccccc1 [I-32, phenyl{[3-(2-thienyl)-5-isoxazolyl)methyl]carbamate]
Evaluation (effect for rice blast) (Pyricularia oryzae): 5 (0)

O=C(NCc1cc(-c2ccco2)no1)Oc1ccccc1 [I-33, phenyl{[3-(2-furyl)-5-isoxazolyl)methyl]carbamate]
Evaluation (effect for cucumber anthracnose) [1]: 5 (0) | Evaluation (effect for rice blast) (Pyricularia oryzae): 5 (0)

O=C(NCc1cc(Cc2ccccc2)no1)Oc1ccccc1 [I-38, phenyl[(3-benzyl-5-isoxazolyl)methyl]carbamate]
Evaluation (effect for cucumber anthracnose) [1]: 5 (0) | Evaluation (effect for rice blast) (Pyricularia oryzae): 5 (0)

O=C(NCc1cc(-c2ccccc2)no1)OCc1ccccc1 [I-41, benzyl [(3-phenyl-5-isoxazolyl)methyl]carbamate]
Evaluation (effect for cucumber anthracnose) [1]: 4 (1˜5) | Evaluation (effect for rice blast) (Pyricularia oryzae): 3 (6˜10)

CC(C)(NC(=O)NCc1cc(-c2ccccc2)no1)c1ccccc1 [I-45]
Evaluation (effect for cucumber anthracnose) [1]: 4 (1˜5) | Evaluation (effect for rice blast) (Pyricularia oryzae): 4 (1˜5)

CC(C)c1cc(CNC(=O)C(C)c2ccccc2)on1 (centres unmarked) [I-47, N-[(3-isopropyl-5-isoxazolyl)methyl]-2-phenylpropanamide]
Evaluation (effect for cucumber anthracnose) [1]: 4 (1˜5) | Evaluation (effect for rice blast) (Pyricularia oryzae): 4 (1˜5)

O=C(Cc1ccccc1)NCc1cc(-c2ccccc2)no1 [I-48, N-[(3-phenyl-5-isoxazolyl)methyl]-2-phenylethanamide]
Evaluation (effect for rice blast) (Pyricularia oryzae): 4 (1˜5)

O=C(NCc1cc(-c2ccccc2)no1)C(Cl)c1ccccc1 (centres unmarked) [I-49, N-[(3-phenyl-5-isoxazolyl)methyl]-2-chloro-2-phenylethanamide]
Evaluation (effect for rice blast) (Pyricularia oryzae): 3 (6˜10)

CC(C)c1cc(CNC(=O)Cc2ccccc2)on1 [I-63, N-[(3-isopropyl-5-isoxazolyl)methyl]phenylacetamide]
Evaluation (effect for rice blast) (Pyricularia oryzae): 2 (11˜20)

CC(C)Cc1cc(CNC(=O)Cc2ccccc2)on1 [I-64, N-[(3-isobutyl-5-isoxazolyl)methyl]phenylacetamide]
Evaluation (effect for cucumber anthracnose) [1]: 3 (6˜10) | Evaluation (effect for rice blast) (Pyricularia oryzae): 2 (11˜20)

Cc1ccc(-c2cc(CNC(=O)Nc3ccccc3)on2)cc1 [II-2, 3-{[3-(4-tolyl)-5-isoxazolyl]methyl}-1-phenyl urea]
Evaluation (effect for rice blast) (Pyricularia oryzae): 5 (0)

CC(C)c1cc(CNC(=O)Nc2ccccc2)on1 [II-3, 1-[(3-isopropyl-5-isoxazolyl)methyl]-3-phenylurea]
Evaluation (effect for rice blast) (Pyricularia oryzae): 3 (6˜10)

O=C(NCc1cc(-c2ccccc2)no1)NC1CCCCC1 [II-7, 3-[(3-phenyl-5-isoxazolyl)methyl]-1-cyclohexyl urea]
Evaluation (effect for cucumber anthracnose) [1]: 5 (0) | Evaluation (effect for rice blast) (Pyricularia oryzae): 5 (0)

Cc1ccc(-c2cc(CNC(=O)NC3CCCCC3)on2)cc1 [II-9, 1-{[3-(4-tolyl)-5-isoxazolyl]methyl}-3-cyclohexylurea]
Evaluation (effect for cucumber anthracnose) [1]: 5 (0) | Evaluation (effect for rice blast) (Pyricularia oryzae): 5 (0)

Cc1ccc(-c2cc(CNC(=O)NC3CCCC3)on2)cc1 [II-10, 3-[3-(4-tolyl)-5-isoxazolyl]methyl-1-cyclopentylurea]
Evaluation (effect for cucumber anthracnose) [1]: 5 (0) | Evaluation (effect for rice blast) (Pyricularia oryzae): 4 (1˜5)

CN(C(=O)NCc1cc(-c2ccccc2)no1)c1ccccc1 [II-12, 3-[(3-phenyl-5-isoxazolyl]methyl]-1-methyl-1-phenyl urea]
Evaluation (effect for cucumber anthracnose) [1]: 4 (1˜5) | Evaluation (effect for rice blast) (Pyricularia oryzae): 4 (1˜5)

O=C(NCc1cc(Cc2ccccc2)no1)NC1CCCCC1 [II-13, 1-[(3-benzyl-5-isoxazolyl)methyl]-3-cyclohexylurea]
Evaluation (effect for cucumber anthracnose) [1]: 5 (0) | Evaluation (effect for rice blast) (Pyricularia oryzae): 5 (0)

O=C(NCc1cc(Cc2ccccc2)no1)NC1CCCC1 [II-14, 1-[(3-benzyl-5-isoxazolyl)methyl]-3-cyclopentylurea]
Evaluation (effect for cucumber anthracnose) [1]: 5 (0) | Evaluation (effect for rice blast) (Pyricularia oryzae): 4 (1˜5)

CC(C)c1cc(CNC(=O)NC2CCCCC2)on1 [II-15, 1-[(3-isopropyl-5-isoxazolyl)methyl]-3-cyclohexylurea]
Evaluation (effect for cucumber anthracnose) [1]: 4 (1˜5) | Evaluation (effect for rice blast) (Pyricularia oryzae): 3 (6˜10)

O=C(NCc1cc(-c2ccccc2)no1)Nc1ccccc1Cl [II-48, 1-[(3-phenyl-5-isoxazolyl)methyl]-3-(2-chlorophenyl)urea]
Evaluation (effect for cucumber anthracnose) [1]: 4 (1˜5) | Evaluation (effect for rice blast) (Pyricularia oryzae): 3 (6˜10)

O=C(NCc1cc(-c2ccccc2)no1)Nc1cccc(Cl)c1 [II-49, 1-[(3-phenyl-5-isoxazolyl)methyl]-3-(3-chlorophenyl)urea]
Evaluation (effect for rice blast) (Pyricularia oryzae): 4 (1˜5)

O=C(NCc1cc(-c2ccccc2)no1)Nc1ccc(Cl)cc1 [II-50, 1-[(3-phenyl-5-isoxazolyl)methyl]-3-(4-chlorophenyl)urea]
Evaluation (effect for rice blast) (Pyricularia oryzae): 5 (0)

O=C(NCc1cc(-c2ccccc2)no1)Nc1ccccn1 [II-99, 1-[(3-phenyl-5-isoxazolyl)methyl]-3-(2-pyridyl)urea]
Evaluation (effect for rice blast) (Pyricularia oryzae): 3 (6˜10)

O=C(NCc1cc(-c2ccccc2)no1)Nc1cccnc1 [II-100, 1-[(3-phenyl-5-isoxazolyl)methyl]-3-(3-pyridyl)urea]
Evaluation (effect for cucumber anthracnose) [1]: 4 (1˜5) | Evaluation (effect for rice blast) (Pyricularia oryzae): 4 (1˜5)

O=C(NCc1cc(COc2ccccc2)no1)NC1CCCCC1 [II-104, 3-(3-phenoxymethyl-5-isoxazolyl)methyl-1-cyclohexylurea]
Evaluation (effect for cucumber anthracnose) [1]: 5 (0) | Evaluation (effect for rice blast) (Pyricularia oryzae): 5 (0)

O=C(NCc1cc(COc2ccccc2)no1)NC1CCCC1 [II-106, 3-(3-phenoxymethyl-5-isoxazolyl)methyl-1-cyclopentylurea]
Evaluation (effect for cucumber anthracnose) [1]: 2 (11˜20) | Evaluation (effect for rice blast) (Pyricularia oryzae): 3 (6˜10)

CC(=O)Nc1ccc(-c2cc(CNC(=O)c3ccc(C)cc3)on2)cc1 [III-57, N-{[3-(4-acetamidophenyl)-5-isoxazolyl]methyl}-4-methylbenzamide]
Evaluation (effect for rice blast) (Pyricularia oryzae): 2 (11˜20)

Cc1ccc(-c2cc(CNC(=O)N3CCCCC3)on2)cc1 [III-203]
Evaluation (effect for rice blast) (Pyricularia oryzae): 2 (11˜20)

CC1C(Cl)(Cl)C1(C)C(=O)NCc1cc(-c2ccccc2)no1 (centres unmarked) [III-212]
Evaluation (effect for rice blast) (Pyricularia oryzae): 2 (11˜20)

CC(NC(=O)C1(C)C(C)C1(Cl)Cl)c1cc(-c2ccccc2)no1 (centres unmarked) [III-213, N-[1-(3-phenyl-5-isoxazolyl)ethyl]-2,2-dichloro-1,3-dimethylcyclopropanecarboxamide]
Evaluation (effect for rice blast) (Pyricularia oryzae): 3 (6˜10)

CCc1ccc(C(=O)NCc2cc(Cc3ccccc3)no2)cc1 [IV-6, N-[(3-benzyl-5-isoxazolyl)methyl]-4-ethylbenzamide]
Evaluation (effect for rice blast) (Pyricularia oryzae): 5 (0)

CS(=O)(=O)c1ccc(C(=O)NCc2cc(Cc3ccccc3)no2)cc1 [IV-8, N-[(3-benzyl-5-isoxazolyl)methyl]-4-methanesulfonylbenzamide]
Evaluation (effect for rice blast) (Pyricularia oryzae): 3 (6˜10)

COc1ccc(C(=O)NCc2cc(COc3ccccc3C#N)no2)cc1 [IV-51, N-{[3-(2-cyanophenyl)oxymethyl-5-isoxazolyl]methyl}-4-methoxybenzamide]
Evaluation (effect for rice blast) (Pyricularia oryzae): 2 (11˜20)

COc1ccc(C(=O)NCc2cc(COc3cccnc3)no2)cc1 [IV-91, N-{[3-(3-pyridyl)oxymethyl-5-isoxazolyl]methyl}-4-methoxybenzamide]
Evaluation (effect for rice blast) (Pyricularia oryzae): 3 (6˜10)

COc1ccc(C(=O)NCc2cc(C(=O)c3ccccc3)no2)cc1 [IV-98, N-[(3-benzoyl-5-isoxazolyl)methyl]-4-methoxybenzamide]
Evaluation (effect for rice blast) (Pyricularia oryzae): 2 (11˜20)

COc1ccc(C(=O)NCc2cc(C(=O)Nc3ccc(Cl)cc3)no2)cc1 [IV-106, N-{[3-(4-chlorophenyl)aminocarbonyl-5-isoxazolyl]methyl}-4-methoxybenzamide]
Evaluation (effect for rice blast) (Pyricularia oryzae): 2 (11˜20)

Source: patent publication US20050171358A1 (priority 2002, published 2005)
